Experimental findings from patent publication US11584755B2 (IDEAYA BIOSCIENCES, INC., priority 2017, dated 2023) are described below.

The IC50 is the concentration that inhibits the measured activity by half. Low values mean greater potency in that assay, high ones weaker potency in that assay.

hFEN1, sequence (P39748 whole entry): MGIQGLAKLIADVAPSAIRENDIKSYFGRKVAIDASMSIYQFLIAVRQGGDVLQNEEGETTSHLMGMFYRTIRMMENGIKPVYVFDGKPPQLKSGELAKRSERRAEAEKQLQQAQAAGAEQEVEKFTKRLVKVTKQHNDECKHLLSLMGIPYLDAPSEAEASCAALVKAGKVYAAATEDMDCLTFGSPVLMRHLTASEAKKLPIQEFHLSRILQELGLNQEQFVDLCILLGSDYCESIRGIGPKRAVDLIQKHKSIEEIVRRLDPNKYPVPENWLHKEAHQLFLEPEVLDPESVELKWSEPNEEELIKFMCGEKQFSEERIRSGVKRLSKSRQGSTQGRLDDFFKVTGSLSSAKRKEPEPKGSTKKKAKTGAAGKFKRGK

In the test the target is hFEN1 (Homo sapiens (Human), UniProt P39748). In words: Enzymatic IC50 assay, FAM-labeled DNA oligomer substrate, fluorescence intensity (FEN1). The class given is biochemical. As to conditions: hFEN1 70 pM, substrate 100 nM, reaction time 20 minutes, 23° C. On the procedure:
FEN1, EXO1 or XPG enzyme was incubated with compound or vehicle (DMSO) and the FAM-labeled DNA oligomer substrate in a microtiter plate. The stop buffer contains EDTA to stop the enzymatic reaction. The plate is read for fluorescence intensity. The high control (DMSO) with high fluorescence intensity represents no inhibition of enzymatic reaction while the low control (10 μM) with low fluorescence intensity represents full inhibition of enzymatic reaction.
• FEN1 • hFEN1: 70 pM • Substrate: 100 nM • Reaction time: 20 minutes • EXO1 • hEXO1: 6 nM, Isoforml • Substrate: 30 nM • Reaction time: 60 minutes • XPG • hXPG: 100 nM • Substrate: 100 nM • Reaction time: 120 minutes
Annealing Buffer: 50 mM Tris-HCl, 50 mM NaCl, 1 mM DTT Assay buffer: 50 mM Tris-HCl pH 8.0, 10 mM MgCl2, 0.01% BSA, 1 mM DTT Stop buffer: 50 mM EDTA in assay buffer Temperature: 23° C. Total volume: 40 μl Controls: • 0% inhibition control: DMSO • 100% inhibition control: 10 μM (final) 5-chloro-3-hydroxy-1,3-dihydroquinazoline-2,4-dione Enzyme Reaction and Detection: • 1. Prepare 25 μM intermediate stock of the substrate by diluting SEQ ID NO:1, SEQ ID NO:2, and SEQ ID NO:3 in annealing buffer, in a PCR tube. • 2. Place the PCR tube on a heat block, heat at 95° C. for 3 minutes, then drop in 0.2° C. increments over 2 minutes, stopping at 25° C. • 3. Remove the tube and let the tube cool at room temperature. • 4. Transfer 10 μL of 3× final concentration test compounds or DMSO to the appropriate wells of a microtiter plate. • 5. Transfer 10 μL of 3× final concentration enzyme in assay buffer or assay buffer alone to the appropriate wells. • 6. Incubate the plate at room temperature for 15 minutes. • 7. Transfer 10 μL of 3× substrate in assay buffer to all the test wells. • 8. Incubate the plate at room temperature for prescribed reaction time. • 9. Centrifuge the plate at 1000 rpm for 1 minute. • 10. Transfer 10 μL of stop buffer to all the test wells. • 11. Centrifuge the plate at 1000 rpm for 1 minute. • 12. Read the plate on a plate reader.
The compound `O=C(O)c1c(O)c(=O)n(Cc2ccccn2)c2ccsc12` [Example 38, 6-hydroxy-5-oxo-4-(pyridin-2-ylmethyl)-4,5-dihydrothieno[3,2-b]pyridine-7-carboxylic acid] showed an IC50 of 2250 to 10000 nM.
Next, `COc1cc(-c2ccc(Cn3c(=O)c(O)c(C(=O)O)c4sccc43)cc2)ccn1` [Example 151, 6-hydroxy-4-(4-(2-methoxypyridin-4-yl)benzyl)-5-oxo-4,5-dihydrothieno[3,2-b]pyridine-7-carboxylic acid]: 250 to 750 nM.
The figure for `Cn1nc(Cn2c(=O)c(O)c(C(=O)O)c3sccc32)c2ccccc21` [Example 51] is 2250 to 10000 nM; for `O=C(O)c1c(O)c(=O)n(Cc2cncc(-c3ccccc3)c2)c2ccsc12` [Example 103, 6-hydroxy-5-oxo-4-[(5-phenylpyridin-3-yl)methyl]-4,5-dihydrothieno[3,2-b]pyridine-7-carboxylic acid] it is 250 to 750 nM; for `O=C(O)c1c(O)c(=O)n(Cc2ccncc2)c2ccsc12` [Example 47, 6-hydroxy-5-oxo-4-(pyridin-4-ylmethyl)-4,5-dihydrothieno[3,2-b]pyridine-7-carboxylic acid] it is 2250 to 10000 nM.
Next, `O=C1CC(Cn2c(=O)c(O)c(C(=O)O)c3sccc32)CN1` (stereo not drawn) [Example 76, 6-hydroxy-5-oxo-4-[(5-oxopyrrolidin-3-yl)methyl]-4,5-dihydrothieno[3,2-b]pyridine-7-carboxylic acid]: 250 to 750 nM; `O=C(O)c1c(O)c(=O)n(Cc2cnn(-c3ccc(Cl)cc3)c2)c2ccsc12` [Example 105, 4-{[1-(4-chlorophenyl)-1H-pyrazol-4-yl]methyl}-6-hydroxy-5-oxo-4,5-dihydrothieno[3,2-b]pyridine-7-carboxylic acid]: 250 to 750 nM.
As for `O=C(O)c1c(O)c(=O)n(Cc2ccc3[nH]c(=O)ccc3c2)c2ccsc12` [Example 17, 6-hydroxy-5-oxo-4-[(2-oxo-1H-quinolin-6-yl)methyl]thieno[3,2-b]pyridine-7-carboxylic acid], the IC50 was 750 to 2250 nM.
Next, `O=C(O)c1c(O)c(=O)n(Cc2cnn(-c3ccc([N+](=O)[O-])cc3)c2)c2ccsc12` [Example 21, 6-hydroxy-4-{[1-(4-nitrophenyl)-1H-pyrazol-4-yl]methyl}-5-oxo-4,5-dihydrothieno[3,2-b]pyridine-7-carboxylic acid]: less than 200 nM; `O=C(O)c1c(O)c(=O)n(CC2CCOCC2)c2ccsc12` [Example 69, 6-hydroxy-5-oxo-4-[(tetrahydro-2H-pyran-4-yl)methyl]-4,5-dihydrothieno[3,2-b]pyridine-7-carboxylic acid]: 2250 to 10000 nM; `O=C(O)c1c(O)c(=O)n(CC2CCCOC2)c2ccsc12` (stereo not drawn) [Example 79, 6-hydroxy-5-oxo-4-[(tetrahydro-2H-pyran-3-yl)methyl]-4,5-dihydrothieno[3,2-b]pyridine-7-carboxylic acid]: 2250 to 10000 nM.
The figure for `O=C(O)c1c(O)c(=O)n(Cc2ccc(OC(F)(F)F)cc2)c2ccsc12` [Example 56, 6-hydroxy-5-oxo-4-(4-(trifluoromethoxy)benzyl)-4,5-dihydrothieno[3,2-b]pyridine-7-carboxylic acid] is 2250 to 10000 nM; for `O=C(O)c1c(O)c(=O)n(CC2CCCO2)c2ccsc12` (stereo not drawn) [Example 8, 6-hydroxy-5-oxo-4-(tetrahydrofuran-2-ylmethyl)thieno[3,2-b]pyridine-7-carboxylic acid] it is 750 to 2250 nM.
Next, `CS(=O)(=O)COc1ccc(Cn2c(=O)c(O)c(C(=O)O)c3sccc32)cc1` [Example 153, 6-hydroxy-4-{4-[(methylsulfonyl)methoxy]benzyl}-5-oxo-4,5-dihydrothieno[3,2-b]pyridine-7-carboxylic acid]: 250 to 750 nM; `O=C(O)c1c(O)c(=O)n(Cc2cccnc2)c2ccsc12` [Example 60, 6-hydroxy-5-oxo-4-(pyridin-3-ylmethyl)-4,5-dihydrothieno[3,2-b]pyridine-7-carboxylic acid]: 750 to 2250 nM; `Cc1ncc(Cn2c(=O)c(O)c(C(=O)O)c3sccc32)o1` [Example 95, 6-hydroxy-4-[(2-methyloxazol-5-yl)methyl]-5-oxo-4,5-dihydrothieno[3,2-b]pyridine-7-carboxylic acid]: 250 to 750 nM.
Take `O=C(O)c1c(O)c(=O)n(CC2COc3ccccc3O2)c2ccsc12` (stereo not drawn) [Example 13, 4-(2,3-dihydro-1,4-benzodioxin-3-ylmethyl)-6-hydroxy-5-oxo-thieno[3,2-b]pyridine-7-carboxylic acid]: the IC50 is less than 200 nM.
Next, `O=C(O)c1c(O)c(=O)n(Cc2ccc3ccc(=O)[nH]c3c2)c2ccsc12` [Example 77, 6-hydroxy-5-oxo-4-[(2-oxo-1,2-dihydroquinolin-7-yl)methyl]-4,5-dihydrothieno[3,2-b]pyridine-7-carboxylic acid]: 250 to 750 nM; `O=C(O)c1c(O)c(=O)n(Cc2ccccc2Br)c2ccsc12` [Example 35, 4-(2-bromobenzyl)-6-hydroxy-5-oxo-4,5-dihydrothieno[3,2-b]pyridine-7-carboxylic acid]: 2250 to 10000 nM.
`COc1ccc(Cn2c(=O)c(O)c(C(=O)O)c3sccc32)cc1OC` [Example 71, 4-(3,4-dimethoxybenzyl)-6-hydroxy-5-oxo-4,5-dihydrothieno[3,2-b]pyridine-7-carboxylic acid] showed an IC50 of 250 to 750 nM.
As for `Cc1cc(Cn2c(=O)c(O)c(C(=O)O)c3sccc32)no1` [Example 82, 6-hydroxy-4-[(5-methylisoxazol-3-yl)methyl]-5-oxo-4,5-dihydrothieno[3,2-b]pyridine-7-carboxylic acid], the concentration for half-maximal inhibition (IC50) lay within 750 to 2250 nM.
The figure for `CC(=O)Nc1ccc(Cn2c(=O)c(O)c(C(=O)O)c3sccc32)cc1Cl` [Example 14, 4-(4-acetamido-3-chlorobenzyl)-6-hydroxy-5-oxo-4,5-dihydrothieno[3,2-b]pyridine-7-carboxylic acid] is 750 to 2250 nM.
The figure for `O=C(O)c1c(O)c(=O)n(CC2COCCO2)c2ccsc12` (stereo not drawn) [Example 74, 4-((1,4-dioxan-2-yl)methyl)-6-hydroxy-5-oxo-4,5-dihydrothieno[3,2-b]pyridine-7-carboxylic acid] is 2250 to 10000 nM.
Next, `COc1ccccc1-n1cc(Cn2c(=O)c(O)c(C(=O)O)c3sccc32)cn1` [Example 106, 6-hydroxy-4-{[1-(2-methoxyphenyl)-1H-pyrazol-4-yl]methyl}-5-oxo-4,5-dihydrothieno[3,2-b]pyridine-7-carboxylic acid]: less than 200 nM.
For the compound `O=C(O)c1c(O)c(=O)n(Cc2cccc(OC(F)(F)F)c2)c2ccsc12` [Example 55, 6-hydroxy-5-oxo-4-(3-(trifluoromethoxy)benzyl)-4,5-dihydrothieno[3,2-b]pyridine-7-carboxylic acid], the IC50 was 750 to 2250 nM.
The figure for `O=C(O)c1c(O)c(=O)n(Cc2ccccc2F)c2ccsc12` [Example 68, 4-(2-fluorobenzyl)-6-hydroxy-5-oxo-4,5-dihydrothieno[3,2-b]pyridine-7-carboxylic acid] is 2250 to 10000 nM; for `O=C(O)c1c(O)c(=O)n(Cc2cnn(-c3ccccc3[N+](=O)[O-])c2)c2ccsc12` [Example 107, 6-hydroxy-4-{[1-(2-nitrophenyl)-1H-pyrazol-4-yl]methyl}-5-oxo-4,5-dihydrothieno[3,2-b]pyridine-7-carboxylic acid] it is less than 200 nM.
